Measured values taken from ChEMBL document CHEMBL4818999, “Pyrido[2, 3-d]pyrimidin-7(8H)-ones as new selective orally bioavailable Threonine Tyrosine Kinase (TTK) inhibitors” (Eur J Med Chem, 2021).
pIC50, pKd: −log10 of the molar value.

Key:
[1] = molecular target: T1, Dual specificity protein kinase TTK (Homo sapiens, UniProt P33981); test: Binding affinity to wild-type human partial length TTK (N505 to V798 residues) expressed in bacterial expression system by active site-directed competition binding based Kinomescan method
T1 sequence (P33981 whole entry): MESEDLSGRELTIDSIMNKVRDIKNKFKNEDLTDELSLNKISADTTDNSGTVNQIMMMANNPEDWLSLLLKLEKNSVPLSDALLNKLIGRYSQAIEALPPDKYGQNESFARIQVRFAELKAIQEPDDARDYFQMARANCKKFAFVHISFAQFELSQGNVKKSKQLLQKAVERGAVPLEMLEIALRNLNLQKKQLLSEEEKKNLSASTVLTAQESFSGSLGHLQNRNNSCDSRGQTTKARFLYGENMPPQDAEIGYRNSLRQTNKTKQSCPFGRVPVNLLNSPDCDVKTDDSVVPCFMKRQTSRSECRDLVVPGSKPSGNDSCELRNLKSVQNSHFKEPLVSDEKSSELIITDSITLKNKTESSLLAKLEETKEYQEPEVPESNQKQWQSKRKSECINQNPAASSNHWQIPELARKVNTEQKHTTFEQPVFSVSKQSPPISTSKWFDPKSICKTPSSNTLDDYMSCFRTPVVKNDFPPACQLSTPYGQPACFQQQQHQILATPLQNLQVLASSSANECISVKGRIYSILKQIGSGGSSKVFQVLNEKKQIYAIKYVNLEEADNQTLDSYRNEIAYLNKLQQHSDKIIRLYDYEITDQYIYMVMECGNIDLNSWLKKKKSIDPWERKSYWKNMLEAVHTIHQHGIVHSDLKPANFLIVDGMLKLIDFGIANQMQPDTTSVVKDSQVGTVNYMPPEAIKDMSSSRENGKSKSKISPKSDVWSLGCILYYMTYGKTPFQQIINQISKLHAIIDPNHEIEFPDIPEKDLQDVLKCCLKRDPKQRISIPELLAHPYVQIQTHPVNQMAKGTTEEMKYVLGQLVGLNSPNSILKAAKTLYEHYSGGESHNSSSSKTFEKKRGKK

[2] = molecular target: T1, Dual specificity protein kinase TTK; test: Inhibition of recombinant full-length human TTK using MBP as substrate incubated for 40 mins in presence of [gamma33P]ATP by scintillation counting based radiometry assay relative to control
HCT-116 = test: Antitumor activity at human HCT-116 cells xenografted in CB17-SCID mouse assessed as tumor growth inhibition at 20 mg/kg, ip administered once weekly for 16 days relative to control; assay type: functional; conditions: HCT-116, ip, 384 h, time 16 day, read-out: TGI
[3] = Half life in Sprague-Dawley rat at 5 mg/kg, iv; assay type: ADME, organism-based; conditions: in vivo
[4] = Cmax in Sprague-Dawley rat at 5 mg/kg, iv; assay type: ADME, organism-based; set-up: route intravenous, dose 5 mg/kg; conditions: in vivo
[5] = AUC (0 to infinity) in Sprague-Dawley rat at 5 mg/kg, iv; assay type: ADME, organism-based; set-up: route intravenous, time infinity, dose 5 mg/kg; conditions: in vivo
[6] = Cmax in Sprague-Dawley rat at 25 mg/kg, po; assay type: ADME, organism-based; set-up: route oral, dose 25 mg/kg; conditions: in vivo
[7] = AUC (0 to infinity) in Sprague-Dawley rat at 25 mg/kg, po; assay type: ADME, organism-based; set-up: time infinity, route oral, dose 25 mg/kg; conditions: in vivo
[8] = Half life in Sprague-Dawley rat at 25 mg/kg, po; assay type: ADME, organism-based; conditions: in vivo
[9] = Clearance in Sprague-Dawley rat at 5 mg/kg, iv; assay type: ADME, organism-based; conditions: in vivo
[10] = Oral bioavailability in Sprague-Dawley rat at 25 mg/kg; assay type: ADME, organism-based; conditions: in vivo

SMILES | pKd [1] | further results
CCC(=O)N[C@H]1CC[C@@H](n2c(=O)cc(C)c3cnc(Nc4ccc(N5CCN(C)CC5)c(OC)c4)nc32)CC1 | 8.38 | 
CCC(=O)N[C@H]1CC[C@@H](n2c(=O)cc(C3CC3)c3cnc(Nc4ccc(N5CCN(C)CC5)cc4OC)nc32)CC1 | 8.10 | pIC50 [2]: 7.30
COc1cc(N2CCN(C)CC2)ccc1Nc1ncc2c(C)cc(=O)n([C@H]3CC[C@@H](NC(C)=O)CC3)c2n1 | 9.14 | 
CCC(=O)N1CCC(n2c(=O)cc(C)c3cnc(Nc4ccc(N5CCN(C)CC5)cc4OC)nc32)CC1 | 8.03 | 
COc1cc(N2CCN(C)CC2)ccc1Nc1ncc2c(C)cc(=O)n([C@H]3CC[C@@H](NC(=O)C4CCCC4)CC3)c2n1 | 9.92 | pIC50 [2]: 7.72
C=CC(=O)N1CC[C@H](n2c(=O)cc(C)c3cnc(Nc4ccc(N5CCN(C)CC5)cc4OC)nc32)C1 | 6.72 | 
CCC(=O)N[C@H]1CC[C@@H](n2c(=O)cc(CC)c3cnc(Nc4ccc(N5CCN(C)CC5)cc4OC)nc32)CC1 | 8.82 | 
CCC(=O)N[C@H]1CC[C@@H](n2c(=O)cc(C)c3cnc(Nc4ccc(N5CCN(C)CC5)c(C)c4)nc32)CC1 | 8.41 | 
CCC(=O)N[C@H]1CC[C@@H](n2c(=O)c(C)cc3cnc(Nc4ccc(N5CCN(C)CC5)cc4OC)nc32)CC1 | 9.54 | 
CCC(=O)N[C@H]1CC[C@@H](n2c(=O)ccc3cnc(Nc4ccc(N5CCN(C)CC5)cc4OC)nc32)CC1 | 9.39 | 
COc1cc(N2CCN(C)CC2)ccc1Nc1ncc2cc(C)c(=O)n([C@H]3CC[C@@H](NC(=O)C4CCCC4)CC3)c2n1 | 9.77 | pIC50 [2]: 7.96
COc1cc(N2CCN(C)CC2)ccc1Nc1ncc2c(C)cc(=O)n([C@H]3CC[C@@H](NCC4CC4)CC3)c2n1 | 8.21 | 
CCC(=O)N1CC[C@@H](n2c(=O)cc(C)c3cnc(Nc4ccc(N5CCN(C)CC5)cc4OC)nc32)C1 | 6.51 | 
CC(=O)O[C@H]1C(=O)[C@@]2(C)[C@H]([C@H](OC(=O)c3ccccc3)[C@]3(O)C[C@H](OC(=O)[C@H](O)[C@@H](NC(=O)c4ccccc4)c4ccccc4)C(C)=C1C3(C)C)[C@]1(OC(C)=O)CO[C@@H]1C[C@@H]2O [PACLITAXEL] |  | inhibition in vivo at 20 mg/kg (HCT-116): 52%
COc1cc(N2CCN(C)CC2)ccc1Nc1ncc2c(C)cc(=O)n([C@H]3CC[C@@H](NC(=O)C(C)(C)C)CC3)c2n1 | 9.70 | 
COc1cc(N2CCN(C)CC2)ccc1Nc1ncc2c(C)cc(=O)n([C@H]3CC[C@@H](NC(=O)c4ccccc4)CC3)c2n1 | 9.52 | 
COc1cc(N2CCN(C)CC2)ccc1Nc1ncc2c(C)cc(=O)n([C@H]3CC[C@@H](NC(=O)C45CC6CC(CC(C6)C4)C5)CC3)c2n1 | 9.25 | 
COc1cc(N2CCN(C)CC2)ccc1Nc1ncc2c(C)cc(=O)n([C@H]3CC[C@@H](NC(=O)C(C)C)CC3)c2n1 | 9.30 | 
CCC(=O)N[C@H]1CC[C@@H](n2c(=O)cc(C)c3cnc(Nc4ccc(N5CCN(C)CC5)cc4OC)nc32)CC1 | 9.15 | 
COc1cc(N2CCN(C)CC2)ccc1Nc1ncc2c(C)cc(=O)n([C@H]3CC[C@@H](NC(=O)c4cccc5ccccc45)CC3)c2n1 | 8.96 | 
CCC(=O)N1CCC[C@@H](n2c(=O)cc(C)c3cnc(Nc4ccc(N5CCN(C)CC5)cc4OC)nc32)C1 | 6.60 | 
CCC(=O)N1CC(n2c(=O)cc(C)c3cnc(Nc4ccc(N5CCN(C)CC5)cc4OC)nc32)C1 | < 6.00 | 
CCC(=O)N[C@H]1CC[C@H](n2c(=O)cc(C)c3cnc(Nc4ccc(N5CCN(C)CC5)cc4OC)nc32)CC1 | 8.55 | 
CCC(=O)N1CCC[C@H](n2c(=O)cc(C)c3cnc(Nc4ccc(N5CCN(C)CC5)cc4OC)nc32)C1 | 6.70 | 
COc1cc(N2CCN(C)CC2)ccc1Nc1ncc2c(C)cc(=O)n([C@H]3CC[C@@H](NC(=O)C4CC4)CC3)c2n1 | 9.39 | 
CCC(=O)N[C@H]1CC[C@@H](n2c(=O)cc(C)c3cnc(Nc4ccc(N5CCN(C)CC5)cc4C)nc32)CC1 | 9.20 | 
CCC(=O)N[C@H]1CC[C@@H](n2c(=O)cc(-c3ccccc3)c3cnc(Nc4ccc(N5CCN(C)CC5)cc4OC)nc32)CC1 | 6.08 | 
CCC(=O)N1CC[C@H](n2c(=O)cc(C)c3cnc(Nc4ccc(N5CCN(C)CC5)cc4OC)nc32)C1 | 6.84 | 
COc1cc(N2CCN(C)CC2)ccc1Nc1ncc2cc(C)c(=O)n([C@H]3CC[C@@H](NC(=O)C4CCCCC4)CC3)c2n1 | 9.77 | half-life [3]: 6.2 h; Cmax [4]: 4740 ng/mL; AUC(0-inf) [5]: 15500 ng·h/mL; Cmax [6]: 2300 ng/mL; AUC(0-inf) [7]: 33300 ng·h/mL; half-life [8]: 7.62 h; pIC50 [2]: 7.70; clearance [9]: 5.61 mL/min/kg; bioavailability [10]: 39.6%
